In publication PMC10489938, “Developing an Amide-Spacered Triterpenoid Rhodamine Hybrid of Nano-Molar Cytotoxicity Combined with Excellent Tumor Cell/Non-Tumor Cell Selectivity” (Molecules, 2023):
Read-outs that look alike come from different tables or passages of the source.

Key:
[1] = system: MCF7 (breast adenocarcinoma); experiment: SRB cytotoxicity assay, MCF7; format: cell-based, human; details: Homo sapiens, MCF7, SRB assay, 72 h of treatment, cut-off 30 μM, read-out: Cytotoxicity (EC50) MCF7
Description: (§1) Sulforhodamine (SRB) assays were performed to evaluate the cytotoxicity of the compounds. First, the cytotoxicity of the different rhodamines was determined; the results of these assays are compiled in Table 1 and Table 2 and depicted in Figure 1.
(§2) Experimental equipment: as previously described biological assays were performed as previously reported employing cell lines obtained from the Department of Oncology [Martin-Luther-University Halle Wittenberg; they were bought from ATCC [2, 4, 7]]. Rhodamine 101 B, as well as asiatic acid, were obtained from local vendors and used as received.
(§3) For the SRB assay and staining experiments: as previously described.

[2] = system: A2780 (ovarian carcinoma); experiment: SRB cytotoxicity assay, A2780; format: cell-based, human; details: Homo sapiens, A2780, SRB assay, 72 h of treatment, cut-off 30 μM, read-out: Cytotoxicity (EC50) A2780
Description: as §1, §2, §3

[3] = system: HT29 (colorectal carcinoma); experiment: SRB cytotoxicity assay, HT29; format: cell-based, human; details: Homo sapiens, HT-29, SRB assay, 72 h of treatment, cut-off 30 μM, read-out: Cytotoxicity (EC50) HT29
Description: as §1, §2, §3

[4] = SRB cytotoxicity assay, NIH 3T3; format: cell-based, murine; details: mouse, NIH 3T3 non-malignant fibroblasts, cut-off 30 μM
Description: as §1, §2, §3

A375 (melanoma) = experiment: SRB cytotoxicity assay, A375; format: cell-based, human; details: Homo sapiens, A-375, SRB assay, 72 h of treatment, cut-off 30 μM, read-out: Cytotoxicity (EC50) A375
Description: as §1, §2, §3

[5] = system: HeLa (cervical adenocarcinoma); experiment: SRB cytotoxicity assay, HeLa; format: cell-based, human; details: Homo sapiens, HeLa, SRB assay, 72 h of treatment, cut-off 30 μM, read-out: Cytotoxicity (EC50) HeLa
Description: as §1, §2, §3

| Structure (SMILES) | EC50 ([1]; Table 1) [nM] | EC50 ([2]; Table 1) [nM] | EC50 ([3]; Table 1) [nM] | EC50 at 72 h ([4]; Table 1, 72 h of treatment) [nM] | EC50 (A375 (melanoma); Table 1) [nM] | EC50 ([5]; Table 1) [nM] | EC50 ([1]; Table 2) [nM] | EC50 ([2]; Table 2) [nM] | EC50 (A375 (melanoma); Table 2) [nM] | EC50 ([3]; Table 2) [nM] | EC50 at 72 h ([4]; Table 2, 72 h of treatment) [nM] | EC50 ([5]; Table 2) [nM] |
| --- | --- | --- | --- | --- | --- | --- | --- | --- | --- | --- | --- | --- |
| COc1cccc2c1C(=O)c1c(O)c3c(c(O)c1C2=O)C[C@@](O)(C(=O)CO)C[C@@H]3O[C@H]1C[C@H](N)[C@H](O)[C@H](C)O1 [DX, doxorubicin, reference compound] | 1100 ± 300 | 20 ± 10 | 900 ± 200 | 11900 ± 1300 | – | – | – | – | – | – | – | – |
| CCCN(CCC)c1ccc2c(-c3ccccc3C(=O)O)c3ccc(=[N+](CCC)CCC)cc-3oc2c1 [Rh3, reference compound] | 6400 ± 400 | 6700 ± 700 | 9300 ± 400 | 12000 ± 700 | 8200 ± 200 | 8000 ± 700 | – | – | – | – | – | – |
| CCCCN(CCCC)c1ccc2c(-c3ccccc3C(=O)O)c3ccc(=[N+](CCCC)CCCC)cc-3oc2c1 [Rh4, reference compound] | 3080 ± 60 | 3400 ± 100 | 4900 ± 300 | 4300 ± 100 | 4300 ± 100 | 4300 ± 300 | – | – | – | – | – | – |
| O=C(O)c1ccccc1C1=c2cc3c4c(c2Oc2c1cc1c5c2CCCN5CCC1)CCC[N+]=4CCC3 [Rh5, rhodamine 101, reference compound] | 8200 ± 800 | 8000 ± 1500 | 18500 ± 1800 | 11900 ± 1300 | 11200 ± 1800 | 11800 ± 1100 | – | – | – | – | – | – |
| CC(=O)OC[C@@]1(C)C2CC[C@]3(C)[C@H](CC=C4[C@@H]5[C@@H](C)[C@H](C)CC[C@]5(C(=O)N5CCN(C(=O)c6ccccc6-c6c7ccc(=[N+](C)C)cc-7oc7cc(N(C)C)ccc67)CC5)CC[C@]43C)[C@@]2(C)C[C@@H](OC(C)=O)[C@@H]1OC(C)=O (stereo partly drawn) [compound 6, (2α,3β,4α)-9-[2-{[4-(2,3,23-Tris(acetyloxy)-urs-12-en-28-oyl)-Piperazinyl]Carbonyl}Phenyl]-3,6-bis(Dimethylamino)-Xanthylium Chloride] | – | – | – | – | – | – | 150 ± 30 | 43 ± 8 | 150 ± 8 | 230 ± 80 | 550 ± 60 | 700 ± 200 |
| CCN(CC)c1ccc2c(-c3ccccc3C(=O)N3CCN(C(=O)[C@]45CC[C@@H](C)[C@H](C)[C@H]4C4=CC[C@@H]6[C@@]7(C)C[C@@H](OC(C)=O)[C@H](OC(C)=O)[C@@](C)(COC(C)=O)C7CC[C@@]6(C)[C@]4(C)CC5)CC3)c3ccc(=[N+](CC)CC)cc-3oc2c1 (stereo partly drawn) [compound 7] | – | – | – | – | – | – | 34 ± 9 | 5.6 ± 0.6 | 27 ± 9 | 26 ± 9 | 330 ± 80 | 200 ± 100 |
| CCCN(CCC)c1ccc2c(-c3ccccc3C(=O)N3CCN(C(=O)[C@]45CC[C@@H](C)[C@H](C)[C@H]4C4=CC[C@@H]6[C@@]7(C)C[C@@H](OC(C)=O)[C@H](OC(C)=O)[C@@](C)(COC(C)=O)C7CC[C@@]6(C)[C@]4(C)CC5)CC3)c3ccc(=[N+](CCC)CCC)cc-3oc2c1 (stereo partly drawn) [compound 8, (2α,3β,4α)-9-[2-{[4-(2,3,23-Tris(Acetyloxy)-urs-12-en-28-oyl)-Piperazinyl]Carbonyl}Phenyl]-3,6-Bis(Dipropylamino)-Xanthylium Chloride] | – | – | – | – | – | – | 34 ± 5 | 5.5 ± 0.5 | 32 ± 3 | 31 ± 7 | 440 ± 90 | 160 ± 50 |
| CCCCN(CCCC)c1ccc2c(-c3ccccc3C(=O)N3CCN(C(=O)[C@]45CC[C@@H](C)[C@H](C)[C@H]4C4=CC[C@@H]6[C@@]7(C)C[C@@H](OC(C)=O)[C@H](OC(C)=O)[C@@](C)(COC(C)=O)C7CC[C@@]6(C)[C@]4(C)CC5)CC3)c3ccc(=[N+](CCCC)CCCC)cc-3oc2c1 (stereo partly drawn) [compound 9, (2α,3β,4α)-9-[2-{[4-(2,3,23-Tris(Acetyloxy)-urs-12-en-28-oyl)-Piperazinyl]Carbonyl}Phenyl]-3,6-Bis(Dibutylamino)-Xanthylium Chloride] | – | – | – | – | – | – | 50 ± 10 | 4.9 ± 0.7 | 16 ± 3 | 26 ± 8 | 400 ± 100 | 210 ± 50 |
| CC(=O)OC[C@@]1(C)C2CC[C@]3(C)[C@H](CC=C4[C@@H]5[C@@H](C)[C@H](C)CC[C@]5(C(=O)N5CCN(C(=O)c6ccccc6C6=c7cc8c9c(c7Oc7c6cc6c%10c7CCCN%10CCC6)CCC[N+]=9CCC8)CC5)CC[C@]43C)[C@@]2(C)C[C@@H](OC(C)=O)[C@@H]1OC(C)=O (stereo partly drawn) [compound 10] | – | – | – | – | – | – | 50 ± 10 | 9 ± 2 | 45 ± 4 | 50 ± 20 | 250 ± 50 | 220 ± 50 |
| CC(=O)OC[C@@]1(C)C2CC[C@]3(C)[C@H](CC=C4[C@@H]5[C@@H](C)[C@H](C)CC[C@]5(C(=O)N5CCCN(C(=O)c6ccccc6-c6c7ccc(=[N+](C)C)cc-7oc7cc(N(C)C)ccc67)CC5)CC[C@]43C)[C@@]2(C)C[C@@H](OC(C)=O)[C@@H]1OC(C)=O (stereo partly drawn) [compound 11, (2α,3β,4α)-9-[2-{[4-(2α,3β,23-Tris(Acetyloxy)-urs-12-en-28-oyl)-Homopiperazinyl]Carbonyl}Phenyl]-3,6-Bis(Dimethylamino)-Xanthylium Chloride] | – | – | – | – | – | – | 28 ± 5 | 3.2 ± 0.4 | 39 ± 3 | 20 ± 10 | 300 ± 100 | 400 ± 100 |
| CCN(CC)c1ccc2c(-c3ccccc3C(=O)N3CCCN(C(=O)[C@]45CC[C@@H](C)[C@H](C)[C@H]4C4=CC[C@@H]6[C@@]7(C)C[C@@H](OC(C)=O)[C@H](OC(C)=O)[C@@](C)(COC(C)=O)C7CC[C@@]6(C)[C@]4(C)CC5)CC3)c3ccc(=[N+](CC)CC)cc-3oc2c1 (stereo partly drawn) [compound 12, (2α,3β,4α)-9-[2-{[4-(2α,3β,23-Tris(Acetyloxy)-urs-12-en-28-oyl)-Homopiperazinyl]Carbonyl}Phenyl]-3,6-Bis(Diethylamino)-Xanthylium Chloride] | – | – | – | – | – | – | 7.1 ± 2.1 | 0.8 ± 0.1 | – | 5.5 ± 2.3 | 65 ± 26.2 | 17.7 ± 4.9 |
| CCCN(CCC)c1ccc2c(-c3ccccc3C(=O)N3CCCN(C(=O)[C@]45CC[C@@H](C)[C@H](C)[C@H]4C4=CC[C@@H]6[C@@]7(C)C[C@@H](OC(C)=O)[C@H](OC(C)=O)[C@@](C)(COC(C)=O)C7CC[C@@]6(C)[C@]4(C)CC5)CC3)c3ccc(=[N+](CCC)CCC)cc-3oc2c1 (stereo partly drawn) [compound 13, (2α,3β,4α)-9-[2-{[4-(2α,3β,23-Tris(Acetyloxy)-urs-12-en-28-oyl)-Homopiperazinyl]Carbonyl}Phenyl]-3,6-Bis(Dipropylamino)-Xanthylium Chloride] | – | – | – | – | – | – | 10 ± 1 | 1.1 ± 0.1 | 3.9 ± 0.6 | 6 ± 1 | 100 ± 50 | 41 ± 9 |
| CCCCN(CCCC)c1ccc2c(-c3ccccc3C(=O)N3CCCN(C(=O)[C@]45CC[C@@H](C)[C@H](C)[C@H]4C4=CC[C@@H]6[C@@]7(C)C[C@@H](OC(C)=O)[C@H](OC(C)=O)[C@@](C)(COC(C)=O)C7CC[C@@]6(C)[C@]4(C)CC5)CC3)c3ccc(=[N+](CCCC)CCCC)cc-3oc2c1 (stereo partly drawn) [compound 14, (2α,3β,4α)-9-[2-{[4-(2α,3β,23-Tris(Acetyloxy)-urs-12-en-28-oyl)-Homopiperazinyl]Carbonyl}Phenyl]-3,6-Bis(Dibutylamino)-Xanthylium Chloride] | – | – | – | – | – | – | 49 ± 6 | 4.5 ± 0.4 | 14 ± 1 | 25 ± 5 | 200 ± 100 | 150 ± 50 |
| CC(=O)OC[C@@]1(C)C2CC[C@]3(C)[C@H](CC=C4[C@@H]5[C@@H](C)[C@H](C)CC[C@]5(C(=O)N5CCCN(C(=O)c6ccccc6C6=c7cc8c9c(c7Oc7c6cc6c%10c7CCCN%10CCC6)CCC[N+]=9CCC8)CC5)CC[C@]43C)[C@@]2(C)C[C@@H](OC(C)=O)[C@@H]1OC(C)=O (stereo partly drawn) [compound 15] | – | – | – | – | – | – | 19 ± 6 | 3.1 ± 0.5 | 8 ± 1 | 10 ± 6 | 140 ± 50 | 80 ± 30 |
| CC(=O)OC[C@@]1(C)C2CC[C@]3(C)[C@H](CC=C4[C@@H]5[C@@H](C)[C@H](C)CC[C@]5(C(=O)N5CCCN(C(=O)c6ccccc6-c6c7ccc(=[N+](C)C)cc-7oc7cc(N(C)C)ccc67)CCC5)CC[C@]43C)[C@@]2(C)C[C@@H](OC(C)=O)[C@@H]1OC(C)=O (stereo partly drawn) [compound 16, (2α,3β,4α)-9-[2-[{4-(2α,3β,23-Tris(Acetyloxy)-urs-12-en-28-oyl)-1,5-Diazocan-1-Yl]Carbonyl}Phenyl]-3,6-Bis(Dimethylamino)-Xanthylium Chloride] | – | – | – | – | – | – | 50 ± 10 | 6 ± 1 | 70 ± 10 | 50 ± 20 | 400 ± 90 | 500 ± 200 |
